US20240246942A1, “KINASE INHIBITORS FOR THE TREATMENT OF NEURODEGENERATIVE DISEASES” (priority 2020, published 2024)

Tests used:
Assay in all cases: biochemical
[1] = biological target: T1, panel of 374 wild-type kinases (Homo sapiens, UniProt P00519); details: read-out: % Enzyme Activity (relative to DMSO controls), ABL1
T1 construct: purchased Reaction Biology Corporation

[2] = biological target: T2, panel of 374 wild-type kinases (Homo sapiens, UniProt P21709); details: read-out: % Enzyme Activity (relative to DMSO controls), EPHA1
T2 construct: purchased Reaction Biology Corporation
T2 sequence (P21709 26-976): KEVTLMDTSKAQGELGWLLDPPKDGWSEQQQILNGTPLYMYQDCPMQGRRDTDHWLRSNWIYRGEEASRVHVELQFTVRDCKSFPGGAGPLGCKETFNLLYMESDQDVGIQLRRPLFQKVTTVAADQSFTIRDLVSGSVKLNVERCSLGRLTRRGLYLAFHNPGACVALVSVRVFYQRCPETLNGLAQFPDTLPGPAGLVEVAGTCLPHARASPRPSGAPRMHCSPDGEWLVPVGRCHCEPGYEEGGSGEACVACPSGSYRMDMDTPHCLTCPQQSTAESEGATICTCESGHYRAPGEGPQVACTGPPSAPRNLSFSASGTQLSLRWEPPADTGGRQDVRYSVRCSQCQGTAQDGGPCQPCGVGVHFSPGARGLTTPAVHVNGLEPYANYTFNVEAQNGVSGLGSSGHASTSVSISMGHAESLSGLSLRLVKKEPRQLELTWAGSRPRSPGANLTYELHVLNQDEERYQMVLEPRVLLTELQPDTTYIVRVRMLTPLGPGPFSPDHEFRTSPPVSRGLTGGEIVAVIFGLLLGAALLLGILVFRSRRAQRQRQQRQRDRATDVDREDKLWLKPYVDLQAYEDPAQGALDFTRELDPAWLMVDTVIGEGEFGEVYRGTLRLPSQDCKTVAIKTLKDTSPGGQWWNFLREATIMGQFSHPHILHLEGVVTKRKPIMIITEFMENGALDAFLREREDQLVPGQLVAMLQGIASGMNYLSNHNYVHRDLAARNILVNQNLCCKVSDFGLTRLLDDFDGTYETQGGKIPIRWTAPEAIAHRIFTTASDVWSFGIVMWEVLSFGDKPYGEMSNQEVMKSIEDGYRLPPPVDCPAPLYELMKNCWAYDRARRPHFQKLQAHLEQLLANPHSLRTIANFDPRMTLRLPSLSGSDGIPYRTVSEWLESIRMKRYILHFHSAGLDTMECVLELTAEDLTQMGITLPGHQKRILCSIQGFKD

[3] = biological target: T3, panel of 374 wild-type kinases (Homo sapiens, UniProt P29597); details: read-out: % Enzyme Activity (relative to DMSO controls), kinase TYK2
T3 construct: purchased Reaction Biology Corporation

[4] = biological target: T4, panel of 374 wild-type kinases (Homo sapiens, UniProt P53355); details: read-out: % Enzyme Activity (relative to DMSO controls), DAPK1
T4 construct: purchased Reaction Biology Corporation
T4 sequence (P53355 whole entry): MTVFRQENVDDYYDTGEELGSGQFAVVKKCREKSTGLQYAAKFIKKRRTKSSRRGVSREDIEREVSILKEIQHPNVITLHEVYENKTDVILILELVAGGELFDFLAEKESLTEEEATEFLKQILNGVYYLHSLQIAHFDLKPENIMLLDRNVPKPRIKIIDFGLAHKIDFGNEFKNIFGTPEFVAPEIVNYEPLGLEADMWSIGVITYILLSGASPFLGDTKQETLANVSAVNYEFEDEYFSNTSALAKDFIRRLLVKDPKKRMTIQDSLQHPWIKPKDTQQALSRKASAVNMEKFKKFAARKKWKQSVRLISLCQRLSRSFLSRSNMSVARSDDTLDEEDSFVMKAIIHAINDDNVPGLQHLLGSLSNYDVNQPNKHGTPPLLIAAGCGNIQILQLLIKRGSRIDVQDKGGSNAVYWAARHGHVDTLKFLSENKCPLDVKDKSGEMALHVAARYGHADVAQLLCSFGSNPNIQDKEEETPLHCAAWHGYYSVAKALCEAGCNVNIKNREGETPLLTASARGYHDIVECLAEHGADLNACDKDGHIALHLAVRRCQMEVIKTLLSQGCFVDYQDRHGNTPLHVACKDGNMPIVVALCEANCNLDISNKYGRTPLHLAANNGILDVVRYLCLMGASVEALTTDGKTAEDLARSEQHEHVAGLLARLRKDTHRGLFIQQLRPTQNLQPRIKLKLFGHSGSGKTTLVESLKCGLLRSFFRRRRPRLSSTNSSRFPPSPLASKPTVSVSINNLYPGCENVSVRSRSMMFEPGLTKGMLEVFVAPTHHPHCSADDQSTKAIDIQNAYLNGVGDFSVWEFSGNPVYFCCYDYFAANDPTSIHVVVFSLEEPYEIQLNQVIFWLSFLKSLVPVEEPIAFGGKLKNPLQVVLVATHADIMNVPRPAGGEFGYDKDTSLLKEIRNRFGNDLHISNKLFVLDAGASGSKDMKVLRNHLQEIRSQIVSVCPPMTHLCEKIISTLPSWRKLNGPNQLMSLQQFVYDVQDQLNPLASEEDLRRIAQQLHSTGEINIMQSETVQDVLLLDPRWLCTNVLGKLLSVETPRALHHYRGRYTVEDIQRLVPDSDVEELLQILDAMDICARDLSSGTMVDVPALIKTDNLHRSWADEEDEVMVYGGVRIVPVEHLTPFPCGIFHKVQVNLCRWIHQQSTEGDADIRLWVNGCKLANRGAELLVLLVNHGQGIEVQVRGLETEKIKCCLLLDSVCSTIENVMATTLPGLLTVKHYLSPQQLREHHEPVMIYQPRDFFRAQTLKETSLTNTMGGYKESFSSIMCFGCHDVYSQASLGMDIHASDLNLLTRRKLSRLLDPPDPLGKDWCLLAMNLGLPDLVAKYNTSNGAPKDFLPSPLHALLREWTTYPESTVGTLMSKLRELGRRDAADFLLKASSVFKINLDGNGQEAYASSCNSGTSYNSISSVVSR

[5] = biological target: T5, panel of 374 wild-type kinases (Homo sapiens, UniProt P57078); details: read-out: % Enzyme Activity (relative to DMSO controls), kinase RIPK4
T5 construct: purchased Reaction Biology Corporation
T5 sequence (P57078 1-832): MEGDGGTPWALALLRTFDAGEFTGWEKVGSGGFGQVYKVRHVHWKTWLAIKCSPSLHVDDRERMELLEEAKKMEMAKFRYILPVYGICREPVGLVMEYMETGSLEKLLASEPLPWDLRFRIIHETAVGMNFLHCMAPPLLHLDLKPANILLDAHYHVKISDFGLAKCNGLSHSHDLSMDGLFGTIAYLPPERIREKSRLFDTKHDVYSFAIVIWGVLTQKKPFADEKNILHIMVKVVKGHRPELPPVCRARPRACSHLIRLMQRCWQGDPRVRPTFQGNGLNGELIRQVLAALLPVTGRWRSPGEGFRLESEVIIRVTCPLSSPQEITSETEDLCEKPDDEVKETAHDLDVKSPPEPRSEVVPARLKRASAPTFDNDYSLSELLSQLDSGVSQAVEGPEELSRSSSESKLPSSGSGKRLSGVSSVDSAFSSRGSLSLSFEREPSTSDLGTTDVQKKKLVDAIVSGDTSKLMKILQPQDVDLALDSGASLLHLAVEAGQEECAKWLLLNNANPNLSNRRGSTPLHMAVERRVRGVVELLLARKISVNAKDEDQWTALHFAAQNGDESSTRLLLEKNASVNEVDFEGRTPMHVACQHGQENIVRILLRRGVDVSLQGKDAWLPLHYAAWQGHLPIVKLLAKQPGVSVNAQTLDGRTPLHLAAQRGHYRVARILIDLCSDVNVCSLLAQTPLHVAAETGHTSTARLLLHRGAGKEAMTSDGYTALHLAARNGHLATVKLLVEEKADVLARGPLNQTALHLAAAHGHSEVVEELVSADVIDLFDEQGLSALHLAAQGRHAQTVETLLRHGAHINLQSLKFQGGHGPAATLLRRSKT

[6] = biological target: T6, panel of 374 wild-type kinases (Homo sapiens, UniProt Q13882); details: read-out: % Enzyme Activity (relative to DMSO controls), BRK
T6 construct: purchased Reaction Biology Corporation
T6 sequence (Q13882 whole entry): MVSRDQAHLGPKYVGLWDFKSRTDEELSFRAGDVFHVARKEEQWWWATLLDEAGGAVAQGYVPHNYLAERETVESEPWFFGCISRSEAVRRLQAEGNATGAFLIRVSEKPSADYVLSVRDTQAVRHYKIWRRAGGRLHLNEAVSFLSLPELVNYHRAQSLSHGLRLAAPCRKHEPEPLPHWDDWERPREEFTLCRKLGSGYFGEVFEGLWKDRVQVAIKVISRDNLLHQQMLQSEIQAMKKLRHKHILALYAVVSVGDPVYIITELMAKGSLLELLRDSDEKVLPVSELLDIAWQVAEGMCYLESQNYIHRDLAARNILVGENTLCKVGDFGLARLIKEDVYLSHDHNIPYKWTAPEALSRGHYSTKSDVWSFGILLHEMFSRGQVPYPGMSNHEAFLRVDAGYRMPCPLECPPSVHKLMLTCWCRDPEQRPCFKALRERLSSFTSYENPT

[7] = biological target: T7, panel of 374 wild-type kinases (Homo sapiens, UniProt Q16288); details: for remaining activity at 5 µM: read-out: % Enzyme Activity (relative to DMSO controls), kinase TRKC
T7 construct: purchased Reaction Biology Corporation
T7 sequence (Q16288 32-839): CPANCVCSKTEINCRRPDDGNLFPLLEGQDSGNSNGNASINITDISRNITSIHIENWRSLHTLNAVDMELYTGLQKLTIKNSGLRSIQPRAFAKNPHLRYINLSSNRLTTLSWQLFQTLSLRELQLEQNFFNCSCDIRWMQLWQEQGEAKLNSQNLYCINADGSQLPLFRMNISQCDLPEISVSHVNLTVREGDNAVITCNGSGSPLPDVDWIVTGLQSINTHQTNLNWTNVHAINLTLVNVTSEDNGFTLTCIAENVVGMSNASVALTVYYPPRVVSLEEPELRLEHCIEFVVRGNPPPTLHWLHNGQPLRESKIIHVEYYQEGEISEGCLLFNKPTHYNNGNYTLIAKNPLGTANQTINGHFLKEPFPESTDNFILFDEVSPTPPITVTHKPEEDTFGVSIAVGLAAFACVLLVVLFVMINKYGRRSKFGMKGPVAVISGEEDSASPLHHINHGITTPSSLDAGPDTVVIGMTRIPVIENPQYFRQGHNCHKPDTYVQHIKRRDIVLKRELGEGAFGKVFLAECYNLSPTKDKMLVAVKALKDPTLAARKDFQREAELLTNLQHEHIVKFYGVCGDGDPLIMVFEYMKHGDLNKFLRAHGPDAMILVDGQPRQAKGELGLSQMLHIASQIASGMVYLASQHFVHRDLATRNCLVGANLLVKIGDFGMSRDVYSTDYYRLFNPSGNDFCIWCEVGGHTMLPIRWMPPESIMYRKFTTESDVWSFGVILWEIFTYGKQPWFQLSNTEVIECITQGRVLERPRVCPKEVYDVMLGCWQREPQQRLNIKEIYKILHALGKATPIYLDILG

[8] = biological target: T8, panel of 374 wild-type kinases (Homo sapiens, UniProt Q9Y6M4); details: read-out: % Enzyme Activity (relative to DMSO controls), CK1g3
T8 construct: purchased Reaction Biology Corporation
T8 sequence (Q9Y6M4 whole entry): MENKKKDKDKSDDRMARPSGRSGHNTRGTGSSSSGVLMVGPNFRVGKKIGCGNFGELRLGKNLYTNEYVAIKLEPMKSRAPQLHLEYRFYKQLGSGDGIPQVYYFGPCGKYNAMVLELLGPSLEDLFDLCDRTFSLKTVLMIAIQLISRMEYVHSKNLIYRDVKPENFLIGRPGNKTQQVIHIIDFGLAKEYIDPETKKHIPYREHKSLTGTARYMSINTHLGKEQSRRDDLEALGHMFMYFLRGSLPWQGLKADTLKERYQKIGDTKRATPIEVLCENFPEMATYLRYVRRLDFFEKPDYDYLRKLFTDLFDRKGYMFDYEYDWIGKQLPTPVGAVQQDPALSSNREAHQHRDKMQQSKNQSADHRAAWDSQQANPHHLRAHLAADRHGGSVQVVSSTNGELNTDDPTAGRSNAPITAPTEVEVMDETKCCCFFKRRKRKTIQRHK

T1 sequence (P00519 whole entry): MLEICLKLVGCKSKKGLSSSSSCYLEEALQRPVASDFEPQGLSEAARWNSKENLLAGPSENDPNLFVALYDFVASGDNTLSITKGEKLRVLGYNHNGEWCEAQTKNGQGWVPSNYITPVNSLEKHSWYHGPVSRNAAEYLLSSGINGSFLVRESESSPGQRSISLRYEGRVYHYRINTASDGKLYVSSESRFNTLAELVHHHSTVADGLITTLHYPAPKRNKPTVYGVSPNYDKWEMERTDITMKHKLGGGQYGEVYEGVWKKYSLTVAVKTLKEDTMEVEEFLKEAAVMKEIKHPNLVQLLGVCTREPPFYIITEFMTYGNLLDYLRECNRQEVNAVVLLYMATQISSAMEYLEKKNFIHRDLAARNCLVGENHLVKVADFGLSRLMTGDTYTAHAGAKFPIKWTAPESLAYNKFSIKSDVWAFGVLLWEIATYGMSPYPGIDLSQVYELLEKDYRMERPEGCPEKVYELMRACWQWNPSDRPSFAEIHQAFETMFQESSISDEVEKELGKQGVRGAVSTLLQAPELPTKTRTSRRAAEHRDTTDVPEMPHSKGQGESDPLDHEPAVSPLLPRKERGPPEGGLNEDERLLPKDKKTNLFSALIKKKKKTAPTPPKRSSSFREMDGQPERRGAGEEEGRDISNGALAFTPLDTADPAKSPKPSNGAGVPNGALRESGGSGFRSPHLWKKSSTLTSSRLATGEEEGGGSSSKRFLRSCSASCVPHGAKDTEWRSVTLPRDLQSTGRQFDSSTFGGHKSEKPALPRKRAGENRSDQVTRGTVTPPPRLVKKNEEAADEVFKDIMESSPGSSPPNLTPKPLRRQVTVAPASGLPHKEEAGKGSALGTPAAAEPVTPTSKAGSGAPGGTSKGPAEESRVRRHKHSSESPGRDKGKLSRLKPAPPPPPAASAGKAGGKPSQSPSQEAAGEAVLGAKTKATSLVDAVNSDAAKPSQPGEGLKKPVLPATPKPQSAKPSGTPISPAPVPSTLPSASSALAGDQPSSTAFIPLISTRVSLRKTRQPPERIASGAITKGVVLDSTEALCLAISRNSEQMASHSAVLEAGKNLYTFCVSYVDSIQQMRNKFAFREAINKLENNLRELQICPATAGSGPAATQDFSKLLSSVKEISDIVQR

| Compound | remaining activity at 10 µM ([1]; 10 uM) [%] | remaining activity at 10 µM ([2]; 10 uM) [%] | remaining activity at 10 µM ([3]; 10 uM) [%] | remaining activity at 10 µM ([4]; 10 uM) [%] | remaining activity at 10 µM ([5]; 10 uM) [%] | remaining activity at 10 µM ([6]; 10 uM) [%] | remaining activity at 10 µM ([7]; kinase TRKC, 10 uM, read-out: % Enzyme Activity (relative to DMSO controls)) [%] | remaining activity at 10 µM ([8]; 10 uM) [%] | remaining activity at 5 µM [1] [%] | remaining activity at 5 µM [2] [%] | remaining activity at 5 µM [3] [%] | remaining activity at 5 µM [4] [%] | remaining activity at 5 µM [5] [%] | remaining activity at 5 µM [6] [%] | remaining activity at 5 µM [7] [%] | remaining activity at 5 µM [8] [%] |
| --- | --- | --- | --- | --- | --- | --- | --- | --- | --- | --- | --- | --- | --- | --- | --- | --- |
| Cc1sc(C(=O)NC2COC2)cc1-n1cc(NC(=O)Nc2c(F)cccc2Cl)cn1 [Compound 27, 4-(4-(3-(2-chloro-6-fluorophenyl)ureido)-1H-pyrazol-1-yl)-5-methyl-N-(oxetan-3-yl)thiophene-2-carboxamide] | 102 | 88.5 | 114 | 104 | 103 | 78.9 | 86 | 91.3 | – | – | – | – | – | – | – | – |
| O=C(Nc1cnn(-c2csc(C(=O)NC3COC3)c2)c1)Nc1c(F)cccc1Cl [Compound 25, 4-(4-(3-(2-chloro-6-fluorophenyl)ureido)-1H-pyrazol-1-yl)-N-(oxetan-3-yl)thiophene-2-carboxamide] | – | – | – | – | – | – | – | – | 101 | 88.4 | 89.3 | 98.9 | 96.7 | 85.7 | 38.6 | 92.6 |
| O=C(Nc1cnn(-c2csc(C(=O)NC3COC3)c2)c1)Nc1ccccc1Cl [Compound 17, 4-(4-(3-(2-chlorophenyl)ureido)-1H-pyrazol-1-yl)-N-(oxetan-3-yl)thiophene-2-carboxamide] | – | – | – | – | – | – | – | – | 83.4 | 99.1 | 95.9 | 104 | 89.2 | 118 | 64.3 | 103 |
